Consider one compound from US7943621B2, “Salts of piperazine compounds as D3/D2 antagonists” (Richter Gedeon Nyrt., priority 2008, dated 2011).

Data set [1] in a line: thermal stability by thermogravimetric (TG) and DSC analysis. It is filed as physicochemical. Particulars: solvent-free anhydrous form, 10° C./min, N2. As to the method: The characterization of trans 4-{2-[4-(2,3-dichlorophenyl)-piperazine-1-yl]-ethyl}-N,N-dimethylcarbamoyl-cyclohexylamine monohydrochloride was carried out by thermogravimetric (TG), differential scanning […] (DSC), infrared spectroscopic (FT-IR), Raman spectroscopic (FT-Raman) and powder X-ray diffraction (PXRD) solid phase analytical methods.
In general terms: In DSC, transitions show as peaks or steps in heat flow.

The nature of data set [2]: stability when stored in the solid state (long term and accelerated). It is filed as physicochemical.

Counter-ions that a name gives are not always drawn.

As for `CN(C)C(=O)NC1CCC(CCN2CCN(c3cccc(Cl)c3Cl)CC2)CC1` (stereo not drawn) [monohydrochloride, Trans 4-{2-[4-(2,3-dichlorophenyl)-piperazine-1-yl]-ethyl}-N,N-dimethylcarbamoyl-cyclohexylamine monohydrochloride], the “satisfactory thermal stability up to” value in data set [1] was “about 200 °C”. In data set [2] (25±2° C./60±5% RH), this compound registered a long term stability of 48 months. Moreover, the accelerated stability in data set [2] (40±2° C./75±5% RH) was found to be 6 months.
